The record followed here is PMC4261083, “An atypical residue in the pore of Varroa destructor GABA-activated RDL receptors affects picrotoxin block and thymol modulation” (Insect Biochemistry and Molecular Biology, 2014).

Assay [1] deals with T1, N-7′H mutant Drosophila RDL receptor (Drosophila melanogaster, UniProt P25123, N292H).
T1 construct: expressed in transfected cells; host or cells: Xenopus laevis oocytes injected with cRNA
T1 sequence (P25123 45-606 N292H): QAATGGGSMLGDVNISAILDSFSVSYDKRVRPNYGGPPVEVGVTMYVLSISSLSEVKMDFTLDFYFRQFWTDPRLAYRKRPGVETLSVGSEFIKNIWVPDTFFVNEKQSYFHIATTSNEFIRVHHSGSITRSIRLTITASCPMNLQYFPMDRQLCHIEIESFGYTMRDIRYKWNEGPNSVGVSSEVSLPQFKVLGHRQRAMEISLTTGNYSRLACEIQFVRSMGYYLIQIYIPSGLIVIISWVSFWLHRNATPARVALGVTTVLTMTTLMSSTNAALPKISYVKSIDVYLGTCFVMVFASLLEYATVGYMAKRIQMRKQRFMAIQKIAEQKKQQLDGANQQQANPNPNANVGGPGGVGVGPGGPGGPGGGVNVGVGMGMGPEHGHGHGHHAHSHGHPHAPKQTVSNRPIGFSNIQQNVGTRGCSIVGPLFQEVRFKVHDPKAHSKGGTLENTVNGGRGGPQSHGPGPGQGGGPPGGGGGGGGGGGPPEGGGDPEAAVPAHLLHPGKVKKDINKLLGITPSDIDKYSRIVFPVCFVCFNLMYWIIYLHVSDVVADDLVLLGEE
In words: Thymol modulation of GABA concentration-response curves, two electrode voltage clamp in Xenopus oocytes. In kind it is cell-based. As to conditions: N-7′H RDL. On the procedure:
(§1) X. laevis oocyte-positive females were purchased from NASCO (Fort Atkinson, Wisconsin, USA) and maintained according to standard methods. Harvested stage V-VI Xenopus oocytes were washed in four changes of ND96 (96 mM NaCl, 2 mM KCl, 1 mM MgCl2, 1 mM CaCl2, 5 mM HEPES, pH 7.5), de-folliculated in 1.5 mg ml^−1 collagenase Type 1A for approximately 2 h, washed again in four changes of ND96 and stored in ND96 containing 2.5 mM sodium pyruvate, 0.7 mM theophylline and […].
(§2) Site directed mutagenesis was performed with the QuikChange mutagenesis kit (Agilent, La Jolla, CA). cRNA was transcribed in vitro from linearised pGEMHE cDNA template using the mMessage mMachine T7 Transcription kit (Ambion, Austin, Texas, USA). Stage V and VI oocytes were injected with 5 ng cRNA, incubated at 18 °C, and currents recorded 18–24 h post-injection.
(§3) Currents were recorded at 5 kHz and filtered at a frequency of 1 kHz. Micro-electrodes were fabricated from borosilicate glass (GC120TF-10, Harvard Apparatus, Edenbridge, Kent, UK) using a one stage horizontal pull (P-87, Sutter Instrument Company, California, USA) and filled with 3 M KCl. […] Oocytes were perfused with ND96 at a constant rate of 12 ml min^−1. Drug application was via a simple gravity fed system calibrated to run at the same rate.
(§4) Analysis and curve fitting was performed using Prism v5 (GraphPad Software, San Diego, California, USA). Concentration-response data for each oocyte was normalised to the maximum current for that oocyte. The mean and S.E.M. for a series of oocytes were fitted to the four parameter logistic equation in Prism.

Assay [2] has as its target T2, A20′S mutant Drosophila RDL receptor (Drosophila melanogaster, UniProt P25123, A319S).
T2 construct: expressed in transfected cells; host or cells: Xenopus laevis oocytes injected with cRNA
T2 sequence (P25123 45-606 A319S): T1 sequence (P25123 45-606 N292H) with H248N, A275S
The assay is described as above. In kind it is cell-based. Here is the method: as §1, §2, §3, §4

Setting [3] is: GABA EC50 control vs +100 μM thymol.
[4] abbreviates: GABA concentration-response in presence of 100 μM thymol.

Molecules are shown by their SMILES. Where a chain is given by its changes, count along the chain named.

As for `Cc1ccc(C(C)C)c(O)c1` [Thymol, thymol], the “Effect of thymol on GABA-induced responses” value in assay [1] (100 μM thymol, 1 μM GABA) is listed as “enhance”; in assay [2] (100 μM thymol, 1 μM GABA) it was “enhance”. Moreover, the “Fold change in EC50” value in assay [1] (setting [3]) worked out at 2.7; in assay [2] (setting [3]), 5.0. The entries for the “% Imax” value in assay [1] (setting [4]) and in assay [2] (setting [4]) were 82 ± 4% and 81 ± 6%, respectively.
